# In US6841570B2, “Materials and methods for controlling wood-boring insects” (priority 2002, dated 2005):
# “Also recorded” adds a separate entry of the source.
# Experiments:
# Reticultiermes flavipes [1] = experiment: Toxicity tests of nepetalactone on treated filter paper in petri dishes; format: in vivo; conditions: filter paper treated with acetone solutions; strengths 5.35%, 0.535%, 0.0535%, 0.000004%
# Method: Materials: Reticultiermes flavipes, from the family Rhinotermitidae, the most common subterranean termites, were collected for toxicity tests, nepetalactone was obtained by commercial purchase (Kooky Kat Catnip Co., B.C.). For repellency assays, a donated amount of nepetalactone was provided from Iowa State University, courtesy of Dr. Joel Coates. Bioassays: Acetone was used as solvent for nepetalactone and control (permethrin). Absorbent (Fisherbrand) coarse, filter paper was treated with nepetalactone and controls and placed in standard, sterile polystyrene 100×15 mm petri dishes. Reticultierme flavipes (20 per replication) were placed in petri dishes and location monitored at 6 ten minute intervals. Toxicity tests: Toxicity tests of nepetalactone were conducted to determine non-lethal percentage for repellency assays. Permethrin (0.1%) solutions served as known control. Four strengths of nepetalactone were measured: 5.35%, 0.535%, 0.0535%, and 0.000004%. Based on the evident mortality, 0.0535% nepetalactone was selected as the repellency test solution.
# Reticultiermes flavipes [2] = experiment: Repellency tests, half-treated filter paper in petri dishes; format: in vivo; conditions: 0.0535% nepetalactone on half of the filter paper; six ten minute intervals
# Method: Materials: Reticultiermes flavipes, from the family Rhinotermitidae, the most common subterranean termites, were collected for toxicity tests, nepetalactone was obtained by commercial purchase (Kooky Kat Catnip Co., B.C.). For repellency assays, a donated amount of nepetalactone was provided from Iowa State University, courtesy of Dr. Joel Coates. Bioassays: Acetone was used as solvent for nepetalactone and control (permethrin). Absorbent (Fisherbrand) coarse, filter paper was treated with nepetalactone and controls and placed in standard, sterile polystyrene 100×15 mm petri dishes. Reticultierme flavipes (20 per replication) were placed in petri dishes and location monitored at 6 ten minute intervals. Repellency tests: Eight trials each of 0.0535% nepetalactone, 0.1% permethrin, blank, and pure acetone solvent were ran to test repellency. Filter papers were cut in half with solvent on one half and treated side on the opposite half. […] Termites were measured on treated and untreated sides at six consecutive ten minute intervals. Percent repellency was calculated as follows: (# live termites−# live termites treated)/total #termites. Standard mean of the Error (SEM): SEM=(variance)^1/2[…].
smiles,measurement,setting,value
"CC1=COC(=O)C2C(C)CCC12 (centres unmarked) [nepetalactone, 5,6,7,7a-tetrahydro-4,7-dimethyl cyclopenta[c]pyran-1-(4aH)-one]",toxic effect (mortality) to termites,Reticultiermes flavipes [1],lethal to termites; also recorded: toxic effects
same,repellant effect on termites,Reticultiermes flavipes [2],dramatic repellant effect; also recorded: clear repellant
